Measurements: patent US9695155B2, “Herbicidal substituted pyrimidinyloxy benzene compounds” (E. I. DU PONT DE NEMOURS AND COMPANY, priority 2013, dated 2017)

Key:
[1] = system: Heteranthera limosa; test: Test B flooded paddy test; format: in vivo; details: Flood, 250 g ai/ha; 0 to 100 scale where 0 is no effect and 100 is complete control
In short: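 Post-emergence paddy-water application at the 2-leaf stage, with 3 cm flood kept for the whole test. Response was judged visually relative to controls after 13 to 15 greenhouse days, 0 indicating no effect and 100 complete control.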

[2] = system: morningglory; test: Test A postemergence; format: in vivo, Ipomoea spp.
In short: (§1)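 Visual 0–100 rating (100 = complete control) taken about 10 d post-treatment relative to untreated checks. Preemergence: directed soil spray on sown loam/sand pots. Postemergence: seedlings 2–10 cm, 1–2 leaf. Non-phytotoxic solvent formulation with surfactant.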

[3] = system: velvetleaf; test: Test A preemergence; format: in vivo, Abutilon theophrasti; details: for Plant response rating, Velvetleaf: 125 g ai/ha, 0 to 100 scale where 0 is no effect and 100 is complete control; for Velvetleaf plant response rating: 500 g ai/ha, 0 to 100 scale, 0 no effect, 100 complete control, approx. 10 days
In short: as §1

[4] = system: wheat; test: Test A postemergence; format: in vivo, Triticum aestivum
In short: as §1

[5] = system: pigweed; test: Test A preemergence; format: in vivo, Amaranthus retroflexus; details: for Plant response rating, Pigweed: 125 g ai/ha, 0 to 100 scale where 0 is no effect and 100 is complete control; for Pigweed plant response rating: 500 g ai/ha, 0 to 100 scale, 0 no effect, 100 complete control, approx. 10 days
In short: as §1

[6] = system: morningglory; test: Test A preemergence; format: in vivo, Ipomoea spp.; details: for Plant response rating, Morningglory: 125 g ai/ha, 0 to 100 scale where 0 is no effect and 100 is complete control; for Morningglory plant response rating: 500 g ai/ha, 0 to 100 scale, 0 no effect, 100 complete control, approx. 10 days
In short: as §1

[7] = system: ragweed; test: Test C postemergence; format: in vivo, Ambrosia elatior; details: for Plant response rating (0 to 100), Ragweed: postemergence; for Plant response rating, Ragweed: Postemergence, scale 0 to 100 (0 no effect, 100 complete control)
In short: (§2)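 Rated visually on 0–100 (100 = complete control) after 13–15 days under glass. Treatments went onto freshly seeded loam/sand soil or onto emerged plants at the 1- to 4-leaf stage, using a surfactant-containing solvent formulation.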

[8] = system: kochia; test: Test C postemergence; format: in vivo, Kochia scoparia; details: for Plant response rating (0 to 100), Kochia: postemergence; for Plant response rating, Kochia: Postemergence, scale 0 to 100 (0 no effect, 100 complete control)
In short: as §2

[9] = system: barnyardgrass; test: Test C postemergence; format: in vivo, Echinochloa crus-galli; details: for Plant response rating (0 to 100), Barnyardgrass: postemergence; for Plant response rating, Barnyardgrass: Postemergence, scale 0 to 100 (0 no effect, 100 complete control)
In short: as §2

[10] = system: morningglory; test: Test C postemergence; format: in vivo, Ipomoea coccinea; details: for Plant response rating (0 to 100), Morningglory: postemergence; for Plant response rating, Morningglory: Postemergence, scale 0 to 100 (0 no effect, 100 complete control)
In short: as §2

[11] = system: barnyardgrass; test: Test A preemergence; format: in vivo, Echinochloa crus-galli; details: for Plant response rating, Barnyardgrass: 125 g ai/ha, 0 to 100 scale where 0 is no effect and 100 is complete control; for Barnyardgrass plant response rating: 500 g ai/ha, 0 to 100 scale, 0 no effect, 100 complete control, approx. 10 days
In short: as §1

[12] = system: wild oat; test: Test C postemergence; format: in vivo, Avena fatua; details: for Plant response rating (0 to 100), Oat, Wild: postemergence; for Plant response rating, Oat, Wild: Postemergence, scale 0 to 100 (0 no effect, 100 complete control)
In short: as §2

[13] = system: pigweed; test: Test C postemergence; format: in vivo, Amaranthus retroflexus; details: for Plant response rating (0 to 100), Pigweed: postemergence; for Plant response rating, Pigweed: Postemergence, scale 0 to 100 (0 no effect, 100 complete control)
In short: as §2

[14] = system: velvetleaf; test: Test C postemergence; format: in vivo, Abutilon theophrasti; details: for Plant response rating (0 to 100), Velvetleaf: postemergence; for Plant response rating, Velvetleaf: Postemergence, scale 0 to 100 (0 no effect, 100 complete control)
In short: as §2

[15] = system: blackgrass; test: Test C postemergence; format: in vivo, Alopecurus myosuroides; details: for Plant response rating (0 to 100), Blackgrass: postemergence; for Plant response rating, Blackgrass: Postemergence, scale 0 to 100 (0 no effect, 100 complete control)
In short: as §2

[16] = 125 g ai/ha, 0 to 100 scale where 0 is no effect and 100 is complete control
[17] = 500 g ai/ha, 0 to 100 scale, 0 no effect, 100 complete control
[18] = 500 g ai/ha, 0 to 100 scale where 0 is no effect and 100 is complete control

`N#Cc1cccc(Oc2ncc(Br)cn2)c1-n1cc(Br)cn1` [Compound 57] was tested, and the “Plant response rating, Ducksalad” value [1] was 60, the “Plant response rating, Morningglory” value [2, 16] was 90 and the “Plant response rating, Morningglory” value [2, 17] was 80. The “Plant response rating, Velvetleaf” value [3] was 40, the “Velvetleaf plant response rating” value [3] was 100 and the “Plant response rating, Wheat” value [4, 16] was 0. The “Plant response rating, Wheat” value [4, 17] was 30, the “Plant response rating, Pigweed” value [5] was 100 and the “Pigweed plant response rating” value [5] was 100. For the same molecule, the “Plant response rating, Morningglory” value [6] was 0, the “Morningglory plant response rating” value [6] was 40 and the “Plant response rating (0 to 100), Ragweed” value ([7]; 125 g ai/ha) was 55. The “Plant response rating (0 to 100), Ragweed” value ([7]; 250 g ai/ha) was 65, the “Plant response rating, Ragweed” value ([7]; 31 g ai/ha, 13 to 15 days) was 35 and the “Plant response rating, Ragweed” value ([7]; 62 g ai/ha) was 40. The “Plant response rating (0 to 100), Kochia” value ([8]; 125 g ai/ha) was 90, the “Plant response rating (0 to 100), Kochia” value ([8]; 250 g ai/ha) was 100 and the “Plant response rating, Kochia” value ([8]; 31 g ai/ha, 13 to 15 days) was 85. For the same molecule, the “Plant response rating, Kochia” value ([8]; 62 g ai/ha) was 90, the “Plant response rating (0 to 100), Barnyardgrass” value ([9]; 125 g ai/ha) was 10 and the “Plant response rating (0 to 100), Barnyardgrass” value ([9]; 250 g ai/ha) was 15. The “Plant response rating, Barnyardgrass” value ([9]; 31 g ai/ha, 13 to 15 days) was 5, the “Plant response rating, Barnyardgrass” value ([9]; 62 g ai/ha) was 10 and the “Plant response rating (0 to 100), Morningglory” value ([10]; 125 g ai/ha) was 85. The “Plant response rating (0 to 100), Morningglory” value ([10]; 250 g ai/ha) was 95, the “Plant response rating, Morningglory” value ([10]; 31 g ai/ha, 13 to 15 days) was 45 and the “Plant response rating, Morningglory” value ([10]; 62 g ai/ha) was 80. The “Plant response rating, Barnyardgrass” value [11] was 60, the “Barnyardgrass plant response rating” value [11] was 100 and the “Plant response rating (0 to 100), Oat, Wild” value ([12]; 125 g ai/ha) was 30. For the same molecule, the “Plant response rating (0 to 100), Oat, Wild” value ([12]; 250 g ai/ha) was 35, the “Plant response rating, Oat, Wild” value ([12]; 31 g ai/ha, 13 to 15 days) was 10 and the “Plant response rating, Oat, Wild” value ([12]; 62 g ai/ha) was 15. The “Plant response rating (0 to 100), Pigweed” value ([13]; 250 g ai/ha) was 95, the “Plant response rating, Pigweed” value ([13]; 31 g ai/ha, 13 to 15 days) was 65 and the “Plant response rating, Pigweed” value ([13]; 62 g ai/ha) was 85. For the same molecule, the “Plant response rating (0 to 100), Velvetleaf” value ([14]; 125 g ai/ha) was 40, the “Plant response rating (0 to 100), Velvetleaf” value ([14]; 250 g ai/ha) was 60 and the “Plant response rating, Velvetleaf” value ([14]; 31 g ai/ha, 13 to 15 days) was 25. For the same molecule, the “Plant response rating, Velvetleaf” value ([14]; 62 g ai/ha) was 35, the “Plant response rating (0 to 100), Blackgrass” value ([15]; 125 g ai/ha) was 30 and the “Plant response rating (0 to 100), Blackgrass” value ([15]; 250 g ai/ha) was 30. The “Plant response rating, Blackgrass” value ([15]; 31 g ai/ha, 13 to 15 days) was 10 and the “Plant response rating, Blackgrass” value ([15]; 62 g ai/ha) was 15.
With `N#Cc1cccc(Oc2ncc(Cl)cn2)c1-n1cc(Cl)cn1` [Compound 72] the “Plant response rating, Ducksalad” value [1] was 75, the “Plant response rating, Morningglory” value [2, 16] was 90 and the “Plant response rating, Morningglory” value [2, 18] was 100. For the same molecule, the “Plant response rating, Velvetleaf” value [3] was 90, the “Velvetleaf plant response rating” value [3] was 100 and the “Plant response rating, Wheat” value [4, 16] was 20. The “Plant response rating, Wheat” value [4, 18] was 50, the “Plant response rating, Pigweed” value [5] was 100 and the “Pigweed plant response rating” value [5] was 100. The “Plant response rating, Morningglory” value [6] was 80, the “Morningglory plant response rating” value [6] was 100 and the “Plant response rating (0 to 100), Ragweed” value ([7]; 125 g ai/ha) was 60. For the same molecule, the “Plant response rating (0 to 100), Ragweed” value ([7]; 250 g ai/ha) was 60, the “Plant response rating, Ragweed” value ([7]; 31 g ai/ha, 13 to 15 days) was 40 and the “Plant response rating, Ragweed” value ([7]; 62 g ai/ha) was 40. For the same molecule, the “Plant response rating (0 to 100), Kochia” value ([8]; 125 g ai/ha) was 95, the “Plant response rating (0 to 100), Kochia” value ([8]; 250 g ai/ha) was 95 and the “Plant response rating, Kochia” value ([8]; 31 g ai/ha, 13 to 15 days) was 90. For the same molecule, the “Plant response rating, Kochia” value ([8]; 62 g ai/ha) was 90, the “Plant response rating (0 to 100), Barnyardgrass” value ([9]; 125 g ai/ha) was 10 and the “Plant response rating (0 to 100), Barnyardgrass” value ([9]; 250 g ai/ha) was 40. For the same molecule, the “Plant response rating, Barnyardgrass” value ([9]; 31 g ai/ha, 13 to 15 days) was 5, the “Plant response rating, Barnyardgrass” value ([9]; 62 g ai/ha) was 5 and the “Plant response rating (0 to 100), Morningglory” value ([10]; 125 g ai/ha) was 85. For the same molecule, the “Plant response rating (0 to 100), Morningglory” value ([10]; 250 g ai/ha) was 90, the “Plant response rating, Morningglory” value ([10]; 31 g ai/ha, 13 to 15 days) was 75 and the “Plant response rating, Morningglory” value ([10]; 62 g ai/ha) was 75. For the same molecule, the “Plant response rating, Barnyardgrass” value [11] was 80, the “Barnyardgrass plant response rating” value [11] was 100 and the “Plant response rating (0 to 100), Oat, Wild” value ([12]; 125 g ai/ha) was 30. For the same molecule, the “Plant response rating (0 to 100), Oat, Wild” value ([12]; 250 g ai/ha) was 35, the “Plant response rating, Oat, Wild” value ([12]; 31 g ai/ha, 13 to 15 days) was 5 and the “Plant response rating, Oat, Wild” value ([12]; 62 g ai/ha) was 5. The “Plant response rating (0 to 100), Pigweed” value ([13]; 125 g ai/ha) was 85, the “Plant response rating (0 to 100), Pigweed” value ([13]; 250 g ai/ha) was 95 and the “Plant response rating, Pigweed” value ([13]; 31 g ai/ha, 13 to 15 days) was 70. For the same molecule, the “Plant response rating, Pigweed” value ([13]; 62 g ai/ha) was 80, the “Plant response rating (0 to 100), Velvetleaf” value ([14]; 125 g ai/ha) was 55 and the “Plant response rating (0 to 100), Velvetleaf” value ([14]; 250 g ai/ha) was 75. For the same molecule, the “Plant response rating, Velvetleaf” value ([14]; 31 g ai/ha, 13 to 15 days) was 40, the “Plant response rating, Velvetleaf” value ([14]; 62 g ai/ha) was 40 and the “Plant response rating (0 to 100), Blackgrass” value ([15]; 125 g ai/ha) was 15. For the same molecule, the “Plant response rating (0 to 100), Blackgrass” value ([15]; 250 g ai/ha) was 15, the “Plant response rating, Blackgrass” value ([15]; 31 g ai/ha, 13 to 15 days) was 10 and the “Plant response rating, Blackgrass” value ([15]; 62 g ai/ha) was 10.
